Test results published in patent US20100143346A1, “Treatment of Macular Degeneration” (priority 2006, published 2010).

Columns and labels:
[1] = test system: TL strain of wild type fish; experiment: 24 hour MTC assay in the TL strain of wild type fish; format: in vivo, Zebrafish (Danio rerio); conditions: 24-48 h.p.f.
Experimental: Assays using Tg 043/050 uas:GFP+/−enhancer:gal4+/−×TL (“panretinal” enhancer) fish, incubated with various compounds (see Table below) from 24 h.p.f. to 5 d.p.f. (unless otherwise stated), then scoring the extent of the gut vessel plexus by microscopy. A score of 3 represents a good, fully formed gut vessel plexus, with 20 or more branched vessels; 2 represents as slightly less well formed plexus with 10-19 vessels; 1 represents a poorly formed plexus with 1-9 vessels; 0 represents a complete absence of visible gut vessels. Each of the compounds was tested in a 24 hour MTC assay in the TL strain of wild type fish (24-48 h.p.f.). The MTC from this assay was used as the highest concentration for assays in the transgenic fish, with half-log intervals.

gut vessel plexus = experiment: Zebrafish angiogenesis assay: scoring of the gut vessel plexus in transgenic GFP fish; format: in vivo, Zebrafish (Danio rerio); set-up: Inhibition of gut vessel formation: scale not given here; conditions: for Inhibition of gut vessel formation: transgenic GFP fish incubated 24 h.p.f. to 5 d.p.f., gut vessel plexus scored by microscopy; for concentrations showing concentration-dependent inhibition of vessels: gut vessels
Excerpt: Zebrafish (Danio rerio) are ideal organisms for the investigation of blood vessel growth because they are transparent in the embryonic and larval stages of development so that blood vessels marked with a fluorescent marker can clearly be seen in vivo in the live animal. Zebrafish blood vessel development is well characterised and vessels can be visualised by microangiography or by expressing green fluorescent protein in blood vessels (Isogai et al. (2001) Dev Biol 230(2): 278-301; Covassin et al. (2006) Proc Natl Acad Sci USA 103(17): 6554-9). Zebrafish are also ideal vertebrate organisms in which to screen for active small molecules because the larvae can be treated with compound simply by immersion of the fish in compound solution in wells of a standard multi-well plate (12, 24 or 96-wells).
Expression of the zebrafish PR can be detected as early as 48 hours post fertilisation and an assay was therefore developed to investigate the effects of compounds on blood vessel formation in zebrafish after this time. Previous studies on inhibition of blood vessel growth have focussed on formation of intersegmental vessels (Serbedzija et al. (1999) Angiogenesis 3(4): 353-9; Parng at al. (2002) Assay Drug Dev Technol 1(1 Pt 1): 41-8) but these particular vessels are specified and begin to form prior to the time when the PR is expressed in the zebrafish embryo. Accordingly, later-developing vessels around the gut, the vascular plexus of the mid gut which branches from the subintestinal vein and supraintestinal artery, were monitored.
A similar method was developed for screening of compounds using a line of fish that express GFP under control of an enhancer that drives expression in blood vessels, spinal cord and eyes. The fish are a cross between the et19.1 enhancer:Gal4 line (Scott et al. (2007) Nat Methods 4(4): 323-6) and a UAS:GFP line made in-house in a TL zebrafish background. Transgenic zebrafish embryos or larvae expressing GFP in the blood vessel walls were treated with test compounds by immersion in aqueous medium containing the compound at the required concentration, for a period of one or more days. At the end of the incubation period the fish were immobilised on their sides and the organisation and structure of the vasculature was visualised by fluorescent microscopy, which is possible because of the transparency of zebrafish larvae. The vessels can be identified by comparison with the online Interactive Atlas of Zebrafish Vascular Anatomy (Isogai et al. (2001) Dev Biol 230(2): 278-301).
Vessels such as the dorsal aorta, posterior cardinal vein, caudal artery, caudal vein, intersegmental vessels, dorsal longitudinal anastomotic vessels and the gut vessel plexus were assessed in each fish and compared to the control group. […] A subjective score was given to the fore/mid gut vessel plexus (by assessment of the number of visible vessels and extent of spread of the plexus), ranging from “3” for a normal extensively vascularised gut, to “0” for a complete absence of any branching of vessels around the gut. The intestinal vessel plexus forms between 3 and 5 days post fertilisation (d.p.f.) and so these assays were usually scored at 5 d.p.f. The vessels could also be quantified by digital photography and quantification of fluorescence levels or number of vessels in the region of interest.
Assays using Tg 043/050 uas:GFP+/−enhancer:gal4+/−×TL (“panretinal” enhancer) fish, incubated with various compounds (see Table below) from 24 h.p.f. to 5 d.p.f. (unless otherwise stated), then scoring the extent of the gut vessel plexus by microscopy. A score of 3 represents a good, fully formed gut vessel plexus, with 20 or more branched vessels; 2 represents as slightly less well formed plexus with 10-19 vessels; 1 represents a poorly formed plexus with 1-9 vessels; 0 represents a complete absence of visible gut vessels. Each of the compounds was tested in a 24 hour MTC assay in the TL strain of wild type fish (24-48 h.p.f.). […]

[2] = cited from earlier work

Row | SMILES | MTC [1] [µM] | Inhibition of gut vessel formation (gut vessel plexus) | also measured
1 | COC[C@]1(OC)CC[C@H]2[C@@H]3CCC4=CC(=O)CCC4=C3[C@@H](c3ccc(/C=N/O)cc3)C[C@@]21C [Asoprisnil] | 10 | + | 
2 | CC1=CC(C)(C)Nc2ccc(-c3cccc(C#N)c3)cc21 [LG120753] | 3 | + | concentrations showing concentration-dependent inhibition of vessels (gut vessel plexus): 0.3 to 3 µM
3 | CC1=CC(C)(C)Nc2ccc(-c3csc(C#N)c3)cc21 [LG121046] | 3 to 10 | ++ | 
4 | CC#C[C@]1(O)CC[C@H]2[C@@H]3CCC4=CC(=O)CCC4=C3[C@@H](c3ccc(N(C)C)cc3)C[C@@]21C [RU486, 17beta-hydroxy-11-beta-(4-dimethylaminophenyl)-17alpha-(prop-1-ynyl)-estra-4,9-dien-3-one] | 10 to 30 | +++ | inhibition of gut vessel formation (in words) (gut vessel plexus): dose-dependent; rescue of vessel inhibition by progesterone (gut vessel plexus; 10 μM of each (RU486 and progesterone)): rescued by progesterone; plasma half life ([2]; after oral dosing): 20 to 30 h; time to peak plasma levels ([2]; after oral dosing): 1 to 2 h; oral bioavailability ([2]; oral): 40-70%
5 | CC#CC1(O)CCC2C3CCC4=CC(=O)CCC4=C3C(c3ccc(NC)cc3)CC21C (centres unmarked) [RU42633] | 30 | +++ | concentration of best inhibition of gut vessels (gut vessel plexus; concentration response curves, 1-5 dpf): 30 µM
6 | CN(C)c1ccc(C2CC3(C)C(CCC3(O)C#CCO)C3CCC4=CC(=O)CCC4=C23)cc1 (centres unmarked) [RU42698] | 100 | ++ | concentrations showing concentration-dependent inhibition of vessels (gut vessel plexus): 30 to 100 µM
7 | CC#CC1(O)CCC2C3CCC4=CC(=O)CCC4=C3C(c3ccc(N)cc3)CC21C (centres unmarked) [RU42848] | 100 | + | 
8 | Cc1cc(C)c(/C=C2\C(=O)Nc3ccccc32)[nH]1 [SU5416] |  |  | inhibition of gut vessel formation (in words) (gut vessel plexus): vessel formation was inhibited
9 | CC1(C)OC(=O)Nc2ccc(-c3cc(F)cc(Cl)c3)cc21 [Wyeth 4g] | 3 | ++ | 
10 | CC1(C)OC(=O)Nc2ccc(-c3cc(F)cc(C#N)c3)cc21 [Wyeth 4h] | 30 | ++ | concentration of maximal inhibition of gut vessels (gut vessel plexus; data not shown): 30 µM
11 | CC1(C)OC(=O)Nc2ccc(-c3ccc(F)c(Cl)c3)cc21 [Wyeth 4j] | 1 to 3 | + | 
12 | CC1(C)OC(=O)Nc2ccc(-c3ccc(F)c(C#N)c3)cc21 [Wyeth 6] | 100 | + | 
